# Read-outs that look alike come from different tables or passages of the source.
# Columns and labels:
# [1] = target: VHL complex (VHL, Elongin B, Elongin C, Cul2, Rbx1) (Homo sapiens (Human), UniProt P40337); experiment: VHL SPR assay; assay type: binding
# Description: (§1) Surface Plasmon Resonance (SPR) assays have been developed to test the affinity (KD) of VHL or CRBN-based compounds to respective recombinant ligase complex/domain.
# (§2) The assays are based on surface plasmon resonance (SPR), which enables to measure the changes of the local refractive index due to changes of molecular mass on a gold chip surface in the case of a binding event and in a flowing system. To detect binding between both partners, the respective E3 ligase is immobilized to the chip surface, while the test compounds are flown over the chip surface at a steady velocity. The detected changes in the RU response are indicative of the binding event and are concentration dependent.
# (§3) These tags provide the anchor for the capturing process to either an NTA or Streptavidin coated chip surface (immobilization level of 3,000-5,000 RU). Because of the rather complex structure of the VHL complex, it was additionally coupled to the chip surface by amino coupling to prevent any protein loss by disruption of the complex in the flowing system.
# (§4) To detect binding of compounds and extract dissociation constants KD for the tested compounds to the immobilized E3 ligase, concentration response curves of the compounds were recorded. Compounds were usually tested in 10-pt dilutions up to 20 μM final concentration in assay buffer and were flown over the chip at 30 μL/min. The contact time for each cycle includes 90 s for association and 200 s for dissociation of compounds.
# (§5) In the following tables, the Kd values are indicated as: +++, <100 nM; ++, 100-500 nM, +, >500 nM.
# [2] = target: pre-formed polyQ46 or Exon1-polyQ46 aggregates (mHTT) (Homo sapiens, UniProt P42858, INS38QQQQQQQQQQQQQQQQQQQQQQQQQ); experiment: Q46_RBA radioligand binding assay (displacement of [3H]-radioligand)
# Procedure: Binding of W to mHTT. A radioligand binding assay was developed to screen for compounds which can efficiently displace a radioligand detailed elsewhere (see, e.g., U.S. Patent Publication No. from US 2017/0292150) pre-formed polyQ46 or Exon1-polyQ46 aggregates (Q46_RBA).
# Aggregation of polyQ peptides is initiated by cleavage of the tag from a GST-polyQ46 or from a MBP-Exon1-polyQ46 fusion protein. The pre-formed aggregates are then incubated with compounds which compete with the [^3H]-radiolabelled ligand for binding to the aggregates. The readout is a scintillation based MicroBeta measurement of radioligand bound to aggregates. The activity was indicated as: +++, <100 nM; ++, 100-500 nM, +, >500 nM.
# [3] = target: mouse CRBN thalidomide binding domain (mCRBN-TBD) (Mus musculus (Mouse), UniProt Q8C7D2); experiment: CRBN SPR assay; conditions: immobilized mCRBN-TBD
# Description: as §1, §2, §3, §4, §5
# [4] = immobilized VHL complex, read-out: VHL SPR Kd
# Chain of VHL complex (VHL, Elongin B, Elongin C, Cul2, Rbx1) (P40337 whole entry, looked up): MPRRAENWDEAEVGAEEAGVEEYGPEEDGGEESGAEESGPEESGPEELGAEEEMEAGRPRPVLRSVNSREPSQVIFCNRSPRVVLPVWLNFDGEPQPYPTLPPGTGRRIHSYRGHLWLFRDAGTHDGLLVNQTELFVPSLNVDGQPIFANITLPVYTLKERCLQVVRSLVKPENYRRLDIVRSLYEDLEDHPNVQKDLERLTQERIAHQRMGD
# Chain of VHL complex (VHL, Elongin B, Elongin C, Cul2, Rbx1) (Q15370 whole entry partner, looked up): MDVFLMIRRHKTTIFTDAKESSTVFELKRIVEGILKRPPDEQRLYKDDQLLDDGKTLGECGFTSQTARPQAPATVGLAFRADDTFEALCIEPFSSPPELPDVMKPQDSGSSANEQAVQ
# Chain of VHL complex (VHL, Elongin B, Elongin C, Cul2, Rbx1) (Q15369 whole entry partner, looked up): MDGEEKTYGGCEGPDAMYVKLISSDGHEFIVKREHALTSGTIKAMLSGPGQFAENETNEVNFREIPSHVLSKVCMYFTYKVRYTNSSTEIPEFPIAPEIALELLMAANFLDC
# Chain of VHL complex (VHL, Elongin B, Elongin C, Cul2, Rbx1) (Q13617 whole entry partner, looked up): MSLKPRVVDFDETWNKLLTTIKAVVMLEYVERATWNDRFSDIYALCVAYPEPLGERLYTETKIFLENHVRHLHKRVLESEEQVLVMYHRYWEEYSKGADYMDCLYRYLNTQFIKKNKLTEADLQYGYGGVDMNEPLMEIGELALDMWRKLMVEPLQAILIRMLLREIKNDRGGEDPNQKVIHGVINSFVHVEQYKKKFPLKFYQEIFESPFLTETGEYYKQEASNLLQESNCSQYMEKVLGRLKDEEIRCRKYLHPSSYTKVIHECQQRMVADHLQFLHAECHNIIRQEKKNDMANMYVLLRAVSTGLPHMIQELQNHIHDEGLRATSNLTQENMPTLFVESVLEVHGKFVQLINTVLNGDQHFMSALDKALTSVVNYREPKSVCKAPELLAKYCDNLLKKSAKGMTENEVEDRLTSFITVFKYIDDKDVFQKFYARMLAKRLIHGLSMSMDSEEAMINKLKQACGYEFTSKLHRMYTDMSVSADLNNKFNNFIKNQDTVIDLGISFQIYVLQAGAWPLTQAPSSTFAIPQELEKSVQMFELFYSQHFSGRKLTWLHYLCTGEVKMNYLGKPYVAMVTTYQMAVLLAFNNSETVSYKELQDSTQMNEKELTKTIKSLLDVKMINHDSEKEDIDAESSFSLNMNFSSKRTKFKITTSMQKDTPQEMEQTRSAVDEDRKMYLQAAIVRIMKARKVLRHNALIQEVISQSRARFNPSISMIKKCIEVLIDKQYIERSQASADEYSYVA
# Chain of VHL complex (VHL, Elongin B, Elongin C, Cul2, Rbx1) (P62877 whole entry partner, looked up): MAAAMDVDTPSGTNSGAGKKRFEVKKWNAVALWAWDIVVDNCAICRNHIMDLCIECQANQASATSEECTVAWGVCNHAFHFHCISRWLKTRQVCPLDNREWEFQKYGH
# Chain of mouse CRBN thalidomide binding domain (mCRBN-TBD) (Q8C7D2 321-429): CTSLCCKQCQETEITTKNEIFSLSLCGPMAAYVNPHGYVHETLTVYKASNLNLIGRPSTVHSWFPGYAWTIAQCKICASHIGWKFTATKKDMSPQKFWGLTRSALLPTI
SMILES,"Kd [1, 4] [nM]",IC50 [2] [nM],Kd [1] [nM],Kd [3] [nM]
CNc1c(-c2cn3c(n2)sc2cc(OCCOCCOCC(=O)N[C@H](C(=O)N4C[C@H](O)C[C@H]4C(=O)NCc4ccc(-c5scnc5C)cc4)C(C)(C)C)ccc23)nc2cc(C#N)ccn12 [Compound 2],100 to 500,< 100,–,–
CNc1c(-c2cn3c(n2)sc2cc(OCCOCCOCCOCC(=O)N[C@H](C(=O)N4C[C@H](O)C[C@H]4C(=O)NCc4ccc(-c5scnc5C)cc4)C(C)(C)C)ccc23)nc2cc(C#N)ccn12 [Compound 3],100 to 500,< 100,–,–
Cc1ncsc1-c1ccc(CNC(=O)[C@H]2C[C@H](O)CN2C(=O)[C@@H](C(C)C)N2Cc3ccccc3C2=O)c(OCCOCCOCCOCCOc2ccc(C(=O)Nc3ccc4oc(-c5ccc(=O)n(C)n5)nc4c3)nc2)c1 [Compound 11],> 500,< 100,–,–
"Cc1ncsc1-c1ccc(CNC(=O)[C@@H]2C[C@@H](O)CN2C(=O)[C@H](C(C)C)N2Cc3ccccc3C2=O)c(OCCOCCOCCOCCOc2ccc(C(=O)Nc3ccc4oc(-c5ccc(=O)n(C)n5)nc4c3)nc2)c1 [Compound 20, 5-{2-[2-(2-{2-[2-({[(2S,4R)-4-Hydroxy-1-[(2S)-3-methyl-2-(1-oxo-2,3-dihydro-1H-isoindol-2-yl)butanoyl]pyrrolidin-2-yl]formamido}methyl)-5-(4-methyl-1,3-thiazol-5-yl)phenoxy]ethoxy}ethoxy)ethoxy]ethoxy}-N-[2-(1-methyl-6-oxo-1,6-dihydropyridazin-3-yl)-1,3-benzoxazol-5-yl]pyridine-2-carboxamide]",100 to 500,< 100,–,–
Cc1ncsc1-c1ccc(CNC(=O)[C@@H]2C[C@@H](O)CN2C(=O)[C@@H](NC(=O)CCOCCOc2ccc(C(=O)Nc3ccc4oc(-c5ccc(=O)n(C)n5)nc4c3)nc2)C(C)(C)C)cc1 [Compound 21],100 to 500,< 100,–,–
"Cc1ncsc1-c1ccc(CNC(=O)[C@@H]2C[C@@H](O)CN2C(=O)[C@@H](NC(=O)CCOCCOCCOc2ccc(C(=O)Nc3ccc4oc(-c5ccc(=O)n(C)n5)nc4c3)nc2)C(C)(C)C)cc1 [Compound 22, 5-{2-[2-(2-{[(2S)-1-[(2S,4R)-4-Hydroxy-2-({[4-(4-methyl-1,3-thiazol-5-yl)phenyl]methyl}carbamoyl)pyrrolidin-1-yl]-3,3-dimethyl-1-oxobutan-2-yl]carbamoyl}ethoxy)ethoxy]ethoxy}-N-[2-(1-methyl-6-oxo-1,6-dihydropyridazin-3-yl)-1,3-benzoxazol-5-yl]pyridine-2-carboxamide]",< 100,< 100,–,–
Cc1ncsc1-c1ccc(CNC(=O)[C@@H]2C[C@@H](O)CN2C(=O)[C@@H](NC(=O)CCOCCOCCOCCOc2ccc(C(=O)Nc3ccc4oc(-c5ccc(=O)n(C)n5)nc4c3)nc2)C(C)(C)C)cc1 [Compound 23],< 100,< 100,–,–
Cc1ncsc1-c1ccc(CNC(=O)[C@@H]2C[C@@H](O)CN2C(=O)[C@@H](NC(=O)CCOCCOCCOCCOCCOCCOc2ccc(C(=O)Nc3ccc4oc(-c5ccc(=O)n(C)n5)nc4c3)nc2)C(C)(C)C)cc1 [Compound 24],< 100,< 100,–,–
Cc1ncsc1-c1ccc(CNC(=O)[C@@H]2C[C@@H](O)CN2C(=O)[C@@H](NC(=O)CCOCCOCCOCCOCCOCCOCCOCCOCCOc2ccc(C(=O)Nc3ccc4oc(-c5ccc(=O)n(C)n5)nc4c3)nc2)C(C)(C)C)cc1 [Compound 25],–,100 to 500,100 to 500,–
CN1C(=O)CCC(N2C(=O)c3cccc(NCCOCCOCCOc4ccc(COc5ccc6oc(-c7ccc(=O)n(C)n7)nc6c5)nc4)c3C2=O)C1=O (centres unmarked) [Compound 30],–,< 100,–,> 500
"Cc1ncsc1-c1ccc(CNC(=O)[C@@H]2C[C@@H](O)CN2C(=O)[C@H](C(C)C)N2Cc3ccccc3C2=O)c(OCCOc2ccc(COc3ccc4oc(-c5ccc(=O)n(C)n5)nc4c3)nc2)c1 [Compound 43, (2S,4R)-4-hydroxy-1-((S)-3-methyl-2-(1-oxoisoindolin-2-yl)butan-oyl)-N-(2-(2-((6-(((2-(1-methyl-6-oxo-1,6-dihydropyridazin-3-yl)benzo[d]oxazol-5-yl)oxy)methyl)pyridin-3-yl)oxy)ethoxy)-4-(4-methylthiazol-5-yl)benzyl)pyrrolidine-2-carboxamide]",> 500,< 100,–,–
Cc1ncsc1-c1ccc(CNC(=O)[C@@H]2C[C@@H](O)CN2C(=O)[C@H](C(C)C)N2Cc3ccccc3C2=O)c(OCCOCCOc2ccc(COc3ccc4oc(-c5ccc(=O)n(C)n5)nc4c3)nc2)c1 [Compound 44],> 500,100 to 500,–,–
Cc1ncsc1-c1ccc(CNC(=O)[C@@H]2C[C@@H](O)CN2C(=O)[C@H](C(C)C)N2Cc3ccccc3C2=O)c(OCCOCCOCCOc2ccc(COc3ccc4oc(-c5ccc(=O)n(C)n5)nc4c3)nc2)c1 [Compound 45],> 500,100 to 500,–,–
Cc1ncsc1-c1ccc(CNC(=O)[C@@H]2C[C@@H](O)CN2C(=O)[C@H](C(C)C)N2Cc3ccccc3C2=O)c(OCCOCCOCCOCCOc2ccc(COc3ccc4oc(-c5ccc(=O)n(C)n5)nc4c3)nc2)c1 [Compound 46],> 500,101,–,–
"Cc1ncsc1-c1ccc(CNC(=O)[C@@H]2C[C@@H](O)CN2C(=O)[C@@H](NC(=O)COCCOCCOc2ccc(COc3ccc4oc(-c5ccc(=O)n(C)n5)nc4c3)nc2)C(C)(C)C)cc1 [Compound 47, (2S,4R)-1-[(2S)-3,3-Dimethyl-2-{2-[2-(2-{[6-({[2-(1-methyl-6-oxo-1,6-dihydropyridazin-3-yl)-1,3-benzoxazol-5-yl]oxy}methyl)pyridin-3-yl]oxy}ethoxy)ethoxy]acetamido}butanoyl]-4-hydroxy-N-{[4-(4-methyl-1,3-thiazol-5-yl)phenyl]methyl}pyrrolidine-2-carboxamide]",100 to 500,< 100,–,–
Cc1ncsc1-c1ccc(CNC(=O)[C@H]2C[C@H](O)CN2C(=O)[C@H](NC(=O)COCCOCCOc2ccc(COc3ccc4oc(-c5ccc(=O)n(C)n5)nc4c3)nc2)C(C)(C)C)cc1 [Compound 48],> 500,< 100,–,–
"Cc1ncsc1-c1ccc(CNC(=O)[C@@H]2C[C@@H](O)CN2C(=O)[C@@H](NC(=O)COCCOCCOCCOc2ccc(COc3ccc4oc(N5CCNCC5)nc4c3)nc2)C(C)(C)C)cc1 [Compound 53, (2S,4R)-1-((S)-2-(tert-butyl)-4-oxo-14-((6-(((2-(piperazin-1-yl)benzo-[d]oxazol-5-yl)oxy)methyl)pyridin-3-yl)oxy)-6,9,12-trioxa-3-azatetradecanoyl)-4-hydroxy-N-(4-(4-methylthiazol-5-yl)benzyl)pyrrolidine-2-carboxamide]",100 to 500,> 500,–,–
Cc1ncsc1-c1ccc(CNC(=O)[C@@H]2C[C@@H](O)CN2C(=O)[C@@H](NC(=O)COCCOCCOCCOCCOc2ccc(COc3ccc4oc(N5CCNCC5)nc4c3)nc2)C(C)(C)C)cc1 [Compound 54],> 500,> 500,–,–
"COc1ccc(COc2ccc3oc(N4CCN(CCOCCOCCOCC(=O)N[C@H](C(=O)N5C[C@H](O)C[C@H]5C(=O)NCc5ccc(-c6scnc6C)cc5)C(C)(C)C)CC4)nc3c2)nc1 [Compound 55, (2S,4R)-1-((S)-2-(tert-butyl)-14-(4-(5-((5-methoxypyridin-2-yl)meth-oxy)benzo[d]oxazol-2-yl)piperazin-1-yl)-4-oxo-6,9,12-trioxa-3-azatetradecanoyl)-4-hydroxy-N-(4-(4-methylthiazol-5-yl)benzyl)pyrrolidine-2-carboxamide]",100 to 500,100 to 500,–,–
COc1ccc(COc2ccc3oc(N4CCN(CCOCCOCCOCCOCC(=O)N[C@H](C(=O)N5C[C@H](O)C[C@H]5C(=O)NCc5ccc(-c6scnc6C)cc5)C(C)(C)C)CC4)nc3c2)nc1 [Compound 56],100 to 500,> 500,–,–
Cc1ncsc1-c1ccc(CNC(=O)[C@@H]2C[C@@H](O)CN2C(=O)[C@@H](NC(=O)COCCOCCOCCOCCOc2ccc(COc3ccc4oc(N5CCn6ccnc6C5)nc4c3)nc2)C(C)(C)C)cc1 [Compound 57],100 to 500,< 100,–,–
"Cc1ncsc1-c1ccc(CNC(=O)[C@@H]2C[C@@H](O)CN2C(=O)[C@@H](NC(=O)COCCOCCOCCOc2ccc(COc3ccc4oc(N5CCn6ccnc6C5)nc4c3)nc2)C(C)(C)C)cc1 [Compound 58, (2S,4R)-1-((S)-2-(tert-butyl)-14-((6-(((2-(5,6-dihydroimidazo[1,2-a]pyrazin-7(8H)-yl)benzo[d]oxazol-5-yl)oxy)methyl)pyridin-3-yl)oxy)-4-oxo-6,9,12-trioxa-3-azatetra-decan-1-oyl)-4-hydroxy-N-(4-(4-methylthiazol-5-yl)benzyl)-pyrrolidine-2-carboxamide]",> 500,100 to 500,–,–
